The values that follow come from patent US20260356860A1, “2-SUBSTITUTED 3,4A,5,7,8,8A-HEXAHYDRO-4H-THIOPYRANO[4,3-DJPYRIMIDIN-4-ONES FOR WOUND TREATMENT” (priority 2022, published 2026).

As usually defined, the IC50 is the concentration at which inhibition is half-maximal. High values mean weaker potency, low ones greater potency.

The target in one experiment is T1, Tankyrase 2 (TNKS2) (Homo sapiens, UniProt Q9H2K2).
T1 sequence (Q9H2K2 1-1166): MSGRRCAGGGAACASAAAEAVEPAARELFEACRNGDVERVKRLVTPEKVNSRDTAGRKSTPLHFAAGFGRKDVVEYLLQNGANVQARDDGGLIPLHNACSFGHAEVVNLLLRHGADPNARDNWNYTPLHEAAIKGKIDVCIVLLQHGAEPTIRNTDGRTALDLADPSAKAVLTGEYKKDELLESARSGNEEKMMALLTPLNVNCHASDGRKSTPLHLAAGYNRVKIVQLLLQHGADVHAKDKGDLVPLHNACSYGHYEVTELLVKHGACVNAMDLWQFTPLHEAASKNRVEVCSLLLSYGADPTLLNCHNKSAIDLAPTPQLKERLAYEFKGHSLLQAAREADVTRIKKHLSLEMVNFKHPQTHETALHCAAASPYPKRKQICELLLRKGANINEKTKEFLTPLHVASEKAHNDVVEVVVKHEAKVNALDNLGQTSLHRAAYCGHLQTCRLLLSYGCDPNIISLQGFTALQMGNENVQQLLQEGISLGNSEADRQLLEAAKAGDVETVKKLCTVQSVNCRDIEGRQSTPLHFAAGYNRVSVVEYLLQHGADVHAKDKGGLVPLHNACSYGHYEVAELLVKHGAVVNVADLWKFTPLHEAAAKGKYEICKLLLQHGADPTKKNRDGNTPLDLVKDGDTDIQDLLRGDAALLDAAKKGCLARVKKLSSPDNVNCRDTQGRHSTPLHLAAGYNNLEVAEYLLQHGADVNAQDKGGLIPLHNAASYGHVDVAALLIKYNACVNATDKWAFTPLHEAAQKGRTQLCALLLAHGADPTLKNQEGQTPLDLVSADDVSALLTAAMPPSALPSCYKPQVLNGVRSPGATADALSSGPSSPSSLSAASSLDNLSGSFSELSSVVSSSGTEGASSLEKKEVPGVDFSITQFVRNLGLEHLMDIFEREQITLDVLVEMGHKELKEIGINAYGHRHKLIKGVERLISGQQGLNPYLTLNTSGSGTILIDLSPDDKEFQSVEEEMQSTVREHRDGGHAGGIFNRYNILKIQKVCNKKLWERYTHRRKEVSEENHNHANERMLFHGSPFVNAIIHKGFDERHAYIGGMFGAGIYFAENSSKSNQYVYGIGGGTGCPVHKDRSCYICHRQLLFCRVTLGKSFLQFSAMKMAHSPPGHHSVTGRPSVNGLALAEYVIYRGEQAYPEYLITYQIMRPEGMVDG
The experiment is described as follows: TNK2 Binding Assay (Tankyrase 2 ribosylation, chemiluminescence). The format is biochemical.
Conditions: not given
Here is the method: Tankyrase 2 assay (n=3) was performed with the following steps: step 1, coating a 96-well plate with 50 μL/well of histone solution; step 2, conducting ribosylation reaction; and step 3, detection.
Step 1: Coating a 96-Well Plate with 50 μL/Well of Histone Solution.
A 5× histone mixture was diluted 1:5 with PBS to make a 1× histone in PBS mixture. 50 μL of the histone mixture was added to each well and incubated at 4° C. overnight. The plate was washed three times using 200 μL PBST buffer (1×PBS containing 0.05% Tween*20 (polysorbate 20) per well. The plate was tapped onto a clean paper towel to remove the liquid. The wells were blocked by adding 200 μL of blocking buffer 3 to each well. The plate was incubated at room temperature for at least 90 minutes. The plate was washed three times with 200 μL PBST buffer. The plate was tapped onto a clean paper towel to remove the liquid.
A fresh solution of 10 mM DTT in water was prepared.
A master mix was prepared and delivered to each well (25 μL/well). Master mix delivered to each well: (2.5 μL of 10×PARP assay buffer (purchased from BPS Bioscience)+2.5 μL of PARP substrate mixture 2+17.5 μL of water+2.5 μL of 10 mM fresh DTT). The concentration of DTT in the master mix was 1 mM. 25 μL of master mix was added to each well.
1×PARP buffer with DTT was prepared. 10×PARP assay buffer was diluted to 1×PARP assay buffer containing DTT by adding 1 volume of 10×PARP assay buffer+1 volume of 10 mM DTT+8 volumes of water. The concentration of DTT in the 1×PARP assay buffer was 1 mM.
5 μL of a test inhibitor was added to each well labeled as “Test Inhibitor.” For the “Positive Control,” the PARP inhibitor, XAV939, was used. For the negative control, no inhibitor is added to the assay mix.
The Tankyrase 2 (TNKS2) enzyme on ice was thawed. The tube containing the enzyme was spun briefly to recover the full content of the tube. The amount of TNKS2 enzyme required for the assay was calculated and the enzyme was diluted to 0.5 ng/μL with 1×PARP assay buffer with DTT. 16) The final concentration of TNKS2 enzyme in the assay was 2 nM. The reaction was initiated by adding 10 μL of diluted TNKS2 enzyme to each well designated “Positive Control” and “Test Inhibitor.” To each well designated as “Blank,” 10 μL of 1×PARP assay buffer with DTT was added. The plate was incubated at room temperature for 1 hour. The plate was washed three times with 100 μL of PBST buffer and the plate was tapped onto a clean paper towel.
1) Streptavidin-HRP was diluted 1:50 in Blocking buffer (purchased from BPS Bioscience) 3.50 μL of diluted Streptavidin-RP was added to each well and incubated for 30 minutes at room temperature. The plate was washed three times with 100 μL of PBST buffer and tapped onto a clean paper towel. Just before use, 1 volume of ELISA ECL Substrate A and 1 volume of ELISA ECL Substrate B were mixed on ice; and 100 μL was added to each well. Immediately, the plate was read in a luminometer or microtiter-plate reader capable of reading chemiluminescence. The “Blank” value was subtracted from all other values.
The molecule `CC(C)(OCCO)c1c(F)cc(-c2nc3c(c(=O)[nH]2)CSCC3)cc1F` [Compound 15, 2-(3,5-difluoro-4-(2-(2-hydroxyethoxy)propan-2-yl)phenyl)-3,5,7,8-tetrahydro-4H-thiopyrano[4,3-d]pyrimidin-4-one] showed an IC50 of 90 nM.

`O=c1[nH]c(-c2ccc(-c3ccc(Br)nc3)c(F)c2)nc2c1CSCC2` [Compound 20, 2-(4-(6-bromopyridin-3-yl)-3-fluorophenyl)-3,5,7,8-tetrahydro-4H-thiopyrano[4,3-d]pyrimidin-4-one] had an IC50 of 4 nM. Compared with the last molecule, the IC50 is about 22-fold lower.

As to `O=c1[nH]c(-c2ccc(-c3ccnc(Br)c3)cc2)nc2c1CSCC2` [Compound 23, 2-(4-(2-bromopyridin-4-yl)phenyl)-3,5,7,8-tetrahydro-4H-thiopyrano[4,3-d]pyrimidin-4-one], the half-inhibitory concentration (IC50) was determined as 14 nM.

Molecule `O=c1[nH]c(-c2ccc(B(O)O)c(O)c2)nc2c1CSCC2` [Compound 30, (2-hydroxy-4-(4-oxo-3,5,7,8-tetrahydro-4H-thiopyrano[4,3-d]pyrimidin-2-yl)phenyl)boronic acid] displayed an IC50 of 20 nM.

In turn, `O=c1[nH]c(-c2ccc(B(O)O)cc2O)nc2c1CSCC2` [Compound 31, (3-hydroxy-4-(4-oxo-3,5,7,8-tetrahydro-4H-thiopyrano[4,3-d]pyrimidin-2-yl)phenyl)boronic acid] displayed an IC50 of 3530 nM. This IC50 is about 180-fold higher than that of the molecule before.

With `COc1cc(-c2nc3c(c(=O)[nH]2)CSCC3)ccc1B(O)O` [Compound 32, (2-methoxy-4-(4-oxo-3,5,7,8-tetrahydro-4H-thiopyrano[4,3-d]pyrimidin-2-yl)phenyl)boronic acid], the 50% inhibitory concentration (IC50) was 111 nM.

On to `COC(=O)NCCOC(C)(C)c1ccc(-c2nc3c(c(=O)[nH]2)CSCC3)cc1O` [Compound 33, methyl (2-((2-(2-hydroxy-4-(4-oxo-3,5,7,8-tetrahydro-4H-thiopyrano[4,3-d]pyrimidin-2-yl)phenyl)propan-2-yl)oxy)ethyl)carbamate], for which the half-maximal inhibitory concentration (IC50) was determined as 12 nM.

Molecule `COC(=O)NCCOC(C)(C)c1ccc(-c2nc3c(c(=O)[nH]2)CSCC3)cc1OC` [Compound 34, methyl (2-((2-(2-methoxy-4-(4-oxo-3,5,7,8-tetrahydro-4H-thiopyrano[4,3-d]pyrimidin-2-yl)phenyl)propan-2-yl)oxy)ethyl)carbamate] gave an IC50 of 164 nM.

Consider `COC(=O)NCCOC(C)(C)c1ccc(-c2nc3c(c(=O)[nH]2)CSCC3)cc1C` [Compound 35, methyl (2-((2-(2-methyl-4-(4-oxo-3,5,7,8-tetrahydro-4H-thiopyrano[4,3-d]pyrimidin-2-yl)phenyl)propan-2-yl)oxy)ethyl)carbamate], for which the IC50 is 13 nM.

The molecule `N#Cc1cc(-c2ccc(B(O)O)cc2)ccc1-c1nc2c(c(=O)[nH]1)CSCC2` [Compound 36, (3′-cyano-4′-(4-oxo-3,5,7,8-tetrahydro-4H-thiopyrano[4,3-d]pyrimidin-2-yl)-[1,1′-biphenyl]-4-yl)boronic acid] displayed a half-maximal inhibitory concentration (IC50) of 29 nM.

In turn, `N#Cc1cc(B(O)O)ccc1-c1nc2c(c(=O)[nH]1)CSCC2` [Compound 37, (3-cyano-4-(4-oxo-3,5,7,8-tetrahydro-4H-thiopyrano[4,3-d]pyrimidin-2-yl)phenyl)boronic acid] came in with an IC50 of 16 nM. This IC50 lies about 1.8-fold lower than the previous one.

Molecule `COC(=O)NCCOC(C)(C)c1ccc(-c2nc3c(c(=O)[nH]2)CSCC3)c(C#N)c1` [Compound 38, methyl (2-((2-(3-cyano-4-(4-oxo-3,5,7,8-tetrahydro-4H-thiopyrano[4,3-d]pyrimidin-2-yl)phenyl)propan-2-yl)oxy)ethyl)carbamate] had a 50% inhibitory concentration (IC50) of 72 nM.

On to `COC(=O)NCCOC(C)(C)c1ccc(-c2nc3c(c(=O)[nH]2)CSCC3)cc1C#N` [Compound 39, methyl (2-((2-(2-cyano-4-(4-oxo-3,5,7,8-tetrahydro-4H-thiopyrano[4,3-d]pyrimidin-2-yl)phenyl)propan-2-yl)oxy)ethyl)carbamate], for which the concentration for half-maximal inhibition (IC50) came out at 650 nM. Compared with the last molecule, the IC50 is about 9-fold higher.

`O=c1[nH]c(-c2ccc(B(O)O)cc2Cl)nc2c1CSCC2` [Compound 40, (3-chloro-4-(4-oxo-3,5,7,8-tetrahydro-4H-thiopyrano[4,3-d]pyrimidin-2-yl)phenyl)boronic acid] came in with an IC50 of 443 nM.

Molecule `O=c1[nH]c(N2CCN(c3ccc(B(O)O)cc3)CC2)nc2c1CSCC2` [Compound 41, (4-(4-(4-oxo-3,5,7,8-tetrahydro-4H-thiopyrano[4,3-d]pyrimidin-2-yl)piperazin-1-yl)phenyl)boronic acid] displayed an IC50 of 8.7 nM. This IC50 lies about 51-fold lower than the previous one.

`O=c1[nH]c(N2CCN(c3c(F)cc(OCCO)cc3F)CC2)nc2c1CSCC2` [Compound 42, 2-(4-(2,6-difluoro-4-(2-hydroxyethoxy)phenyl)piperazin-1-yl)-3,5,7,8-tetrahydro-4H-thiopyrano[4,3-d]pyrimidin-4-one] gave an IC50 of 9.7 nM.

The molecule `CC1(C)OB(O)c2ccc(-c3nc4c(c(=O)[nH]3)CSCC4)cc21` [Compound 44, 2-(1-hydroxy-3,3-dimethyl-1,3-dihydrobenzo[c][1,2]oxaborol-5-yl)-3,5,7,8-tetrahydro-4H-thiopyrano[4,3-d]pyrimidin-4-one] displayed an IC50 of 630 nM.

The subject of a further experiment is HEK293 SuperTOPFlash reporter cells, Wnt promoter. Kind of experiment: HEK CELL Wnt Assay (luciferase reporter). It counts as cell-based. The following applies: @ >10,000 nM. As for the experimental part: In order to determine the effect of the compounds of Formula (I) on Wnt inhibition, an in vitro assay using HEK293 SuperTOPFlash reporter cells, with the Wnt promoter driving a luciferase reporter gene, were utilized. 40,000 HEK293 SuperTOPFlash reporter cells were seeded, per well, in a 48 well plate for 24 hours, prior to administration of serial dilutions of the compound of Formula (I) to individual wells. Serial dilutions ranging from […] to 1 nM of the compound of Formula (I) were added with or without 50 ng/mL Wnt3a (Time Biosciences) and allowed to incubate with the reporter cells for 18 hours. Reporter cells with no treatment were used as negative control.
In general terms: A reporter such as luciferase makes a cellular process visible.
With `N#Cc1ccc2c(c1)[nH]c(=O)n2[C@H]1C[C@H](c2nc3c(c(=O)[nH]2)CSCC3)C1` [Compound 2, 2-oxo-1-((1r,3r)-3-(4-oxo-3,5,7,8-tetrahydro-4H-thiopyrano[4,3-d]pyrimidin-2-yl)cyclobutyl)-2,3-dihydro-1H-benzo[d]imidazole-5-carbonitrile], the “HEK CELL Wnt inhibition” value is recorded as 60% inhibition @ >10,000 nM.

Still in this experiment, the particulars now being: serial dilutions, with or without 50 ng/mL Wnt3a; 18 h.
`O=c1[nH]c(-c2ccc(-c3ccc(Br)cc3)cc2)nc2c1CSCC2` had a half-inhibitory concentration (IC50) of 100 nM. This counts as sub-micromolar.
